The record followed here is ChEMBL document CHEMBL4823303, “Discovery of Small Molecule Entry Inhibitors Targeting the Fusion Peptide of SARS-CoV-2 Spike Protein” (ACS Med Chem Lett, 2021).

Where only a bound is given, the exact number is not on record here.

The nature of data set [1]: Cytotoxicity against HEK293 cells expressing ACE2 cells assessed as reduction in cell viability relative to control. As to conditions: human; call rule not given here.
Data set [2] is described as follows: Cytotoxicity against African green monkey Vero E6 cells expressing ACE2 cells assessed as reduction in cell viability relative to control. As to conditions: chlorocebus sabaeus.
Data set [3] has as its system Vesicular stomatitis virus. Description: microbe, parasite or virus in culture. The class given is functional, organism-based.
The subject of data set [4] is SARS-CoV-2. Description: microbe, parasite or virus in culture. The class given is functional, organism-based, Vero E6. As to conditions: Severe acute respiratory syndrome coronavirus 2, Vero C1008, 72 h.
A further data set has as its system Vero C1008. Description: Cytotoxicity against African green monkey Vero E6 cells expressing ACE2 cells assessed as reduction in cell viability. As to conditions: Chlorocebus sabaeus.
Data set [5] concerns SARS-CoV-2. Description: Antiviral activity against pseudovirus SARS-CoV-2 spike protein infected in HEK293 cells expressing ACE2 assessed as reduction in pseudotyped particle entry incubated for 48 hrs incubation by luminescence assay relative to control. The class given is functional, Severe acute respiratory syndrome coronavirus 2.
For data set [6], the system named is SARS-CoV-2. Description: Antiviral activity against pseudovirus SARS-CoV-2 spike protein infected in HEK293 cells expressing ACE2 assessed as reduction in pseudotyped particle entry incubated for 48 hrs incubation by luminescence assay. The class given is functional, organism-based. The settings on record: Severe acute respiratory syndrome coronavirus 2, HEK293, 48 h.

Another data set relates to HEK293. Description: Cytotoxicity against HEK293 cells expressing ACE2 cells assessed as reduction in cell viability. As to conditions: Homo sapiens.
Data set [7] has as its system SARS-CoV-2. The class given is functional, Severe acute respiratory syndrome coronavirus 2, Vero E6. The settings on record: time 72 hrs.
The subject of the next data set is SARS-CoV. Description: microbe, parasite or virus in culture. The class given is functional, organism-based. As to conditions: Severe acute respiratory syndrome-related coronavirus, Huh-7, 24 h.
Setting [8] is: Vesicular stomatitis virus, read-out: IC50.

The term IC50 denotes the midpoint of a concentration-inhibition curve. `CC(Nc1nc(N2CCOCC2)nc2ccccc12)c1ccccc1` (configuration not stated): the results for the Emax in data set [1] and in data set [2] were 25.1% and 23%, respectively. Also, the half-maximal inhibitory concentration (IC50) is over 57.5 µM in [3] (setting [8]); over 20 µM in the data set on SARS-CoV-2 [4]; over 20 µM in the data set on Vero C1008; 22.4 µM in the data set on SARS-CoV-2 [6]; over 57.5 µM in the data set with HEK293. Further, in the data set on SARS-CoV-2 [5], the Efficacy is reported as 94.1%.

As for `CC(Nc1nc(N2CCNCC2)nc2ccc(F)cc12)c1ccccc1` (configuration not stated), the values for the Emax in data set [1] and in [2] were 0% and 11.8%, respectively. Also, the IC50 is over 57.5 µM in data set [3] (setting [8]); 7.94 µM in the data set on SARS-CoV-2 [4]; over 20 µM in the data set on Vero C1008; 15.8 µM in the data set with SARS-CoV-2 [6]; over 57.5 µM in the data set with HEK293. In addition, the Efficacy with SARS-CoV-2 [7] amounted to 101.3%; in the data set on SARS-CoV-2 [5], 70.6%.

For `CC(Nc1nc(N2CCNCC2)nc2cc(Br)ccc12)c1ccccc1` (configuration not stated), the Emax was 72.1% in data set [1] and 91.5% in data set [2]. In addition, the IC50 in [3] (setting [8]) is 7.94 µM; with SARS-CoV-2 [4], 7.94 µM; with Vero C1008, 14.1 µM; with SARS-CoV-2 [6] it was 8.91 µM; in the data set on HEK293, 39.8 µM. The Efficacy was 139.9% in the data set with SARS-CoV-2 [7] and 97.1% in the data set with SARS-CoV-2 [5].

Regarding `CC(Nc1nc(N2CCNCC2)nc2ccccc12)c1c(F)cccc1F` (configuration not stated), the figures for the Emax in data set [1] and in [2] were 0% and 12.8%, respectively. The 50% inhibitory concentration (IC50) in [3] (setting [8]) is over 57.5 µM; in the data set with SARS-CoV-2 [4] it was 14.1 µM; with SARS-CoV it was 1.65 µM; with SARS-CoV-2 [6], 22.4 µM; in the data set on HEK293, over 57.5 µM. Moreover, the Efficacy with SARS-CoV-2 [7] was determined as 79.9%; in the data set with SARS-CoV-2 [5], 88.9%.

Take `CC(Nc1nc(N2CCNCC2)nc2ccccc12)c1ccccc1N` (configuration not stated): the Emax in [1] and in data set [2] was 0% each time. Further, the IC50 in data set [3] (setting [8]) was 39.8 µM; in the data set on SARS-CoV-2 [4], 12.6 µM; with Vero C1008 it was over 20 µM; with HEK293, over 57.5 µM. The Efficacy is recorded as 31.5% in the data set with SARS-CoV-2 [7] and 70.2% in the data set with SARS-CoV-2 [5].

On to `C[C@H](Nc1nc(N2CCNCC2)nc2ccccc12)c1ccccc1`, for which the Emax in data set [1] and in data set [2] was 0% throughout. In addition, the IC50 in [3] (setting [8]) was over 57.5 µM; in the data set with Vero C1008, over 20 µM; in the data set on SARS-CoV-2 [6], 15.8 µM; in the data set with HEK293, over 57.5 µM. Further, the figures for the Efficacy in the data set with SARS-CoV-2 [7] and in the data set on SARS-CoV-2 [5] were 87.8% and 94.3%, respectively.

As for `CC(Nc1nc(N2CCNCC2)nc2cc(-c3ccccc3)ccc12)c1ccccc1` (configuration not stated), the Emax in data set [1] turned out to be 96.7%; in data set [2], 116%. The IC50 in data set [3] (setting [8]) stood at 35.5 µM; with SARS-CoV-2 [4], 4.47 µM; in the data set with Vero C1008 it was 7.94 µM; with SARS-CoV-2 [6], 12.6 µM; in the data set on HEK293, 39.8 µM. In the data set with SARS-CoV-2 [7], this molecule displayed an Efficacy of 79%.

`CC(Nc1nc(N2CCC(=O)CC2)nc2ccccc12)c1ccccc1` (configuration not stated): the Emax in [1] and in [2] was 0% in each case. In addition, the IC50 in data set [3] (setting [8]) is over 57.5 µM; with SARS-CoV-2 [4] it was 13 µM; in the data set on SARS-CoV-2 [6], 31.6 µM; in the data set with HEK293, over 57.5 µM. In addition, the Efficacy stood at 48.5% in the data set with SARS-CoV-2 [7] and 100% in the data set with SARS-CoV-2 [5].

For `CN1CCC[C@@H]1CCO[C@](C)(c1ccccc1)c1ccc(Cl)cc1.O=C(O)/C=C/C(=O)O` [CLEMASTINE FUMARATE], in data set [3], the IC50 entry is given as “Not Active”.

With `CC(Nc1nc(N2CCNCC2)nc2ccc(-c3ccccc3)cc12)c1ccccc1` (configuration not stated), the Emax in [1] worked out at 20.8%; in data set [2], 88.5%. Moreover, the half-inhibitory concentration (IC50) was over 57.5 µM in [3] (setting [8]); 7.94 µM in the data set with SARS-CoV-2 [4]; 14.1 µM in the data set with Vero C1008; 15.8 µM in the data set with SARS-CoV-2 [6]; over 57.5 µM in the data set with HEK293. In addition, the values for the Efficacy in the data set on SARS-CoV-2 [7] and in the data set on SARS-CoV-2 [5] were 81.6% and 100%, respectively.
